In patent publication US20020193627A1, “Novel crystalline disodium pamidronate hydrate and process for preparing it” (priority 1999, published 2002):
Read-outs that look alike come from different tables or passages of the source.

Tests used:
[1] = for Stability Evaluation (Stable hydrate): form listed as stable
Description: (1) anhydrous disodium pamidronate, (2) disodium pamidronate 3˜4 hydrates prepared in the example 2(water contents 18.50%), (3) disodium pamidronate 5 hydrates (water contents 24.41%)
(1) 1.000 g 1.200 g of anhydrous disodium pamidronate was accurately weighed and 15 samples were prepared.
(2) 1.000 g -1.200 g of disodium pamidronate 3˜4 hydrates was accurately weighed and I; samples were prepared.
(3) 1.000 g-1.200 g of disodium pamidronate 5 hydrates was accurately weighed and 15 samples were prepared.
(4) The tests were carried out under the following conditions:
1) Temperature (T) and humidity (relative humidity: RH): i) 24° C., 50% RH, ii) 40° C., 0% RH, iii) 40° C., 75% RH […]
i) 1 week ii) 2 weeks, iii) 3 weeks, iv) 4 weeks. v) 5 weeks
(5) After the tests were carried out, each sample was dried under reduced pressurekbelow 5 mmHg) at 150° C. for 5 hours, weighed the lost weight and determined the water contents.
The values show water contents (%).

[2] = Thermal Gravity Assay (TGA); format: physicochemical
Description: In order to confirm the physical properties of 3˜4 hydrates prepared in the example 2, the lattice distances (d-values) and relative line sensitivities of X-ray diffraction patterns were measured on the conditions of step sizes 0.012 from 2 theta 5 to 2 theta 50, scan velocity 3.000 and time 2.000 by using Rigaku D/Max-IIIB X-ray Diffractometer (XRD). The test results were shown on FIG. 1a and FIG. 1b. Thermal Gravity Assay for 3˜4 hydrates (TGA data) was carried out by using TA Instruments Model 2950 TGA Thermal Analyzer (TGA). The lost weight of the 3˜4 hydrtes was measured by gradually raising the temperature of 10° C. per minute from room temperature to 500° C. The results were shown on FIG. 2.

[3] = Soft gelatine capsule storage stability by visual observation; format: physicochemical; settings: soft gelatine capsules (125 mg); 24° C., 50% RH; 6 months
Description: Soft gelatine capsules(125 mg) were respectively prepared from the crystalline disodium pamidronates of example 2 and comparative example by a conventional soft capsule manufacturing method. The soft capsules were stored in chamber which is controlled a constant temperature and hymidity (24° C., 50% RH) for 6 months. The stabilities of the soft capsules were tested by visual observation for the changes of properties, colors or shapes.

Molecule | water contents ([1]; 24° C., 50% RH, 1 week) [%] | water contents ([1]; 24° C., 50% RH, 2 weeks) [%] | water contents ([1]; 24° C., 50% RH, 3 weeks) [%] | water contents ([1]; 24° C., 50% RH, 4 weeks) [%] | water contents ([1]; 24° C., 50% RH, 5 weeks) [%] | behaviour of water contents on storage ([1]; 40° C. 0% RH) | behaviour of water contents on storage ([1]; 40° C. 75% RH) | water contents ([1]; 40° C., 0% RH, 1 week) [%] | water contents ([1]; 40° C., 0% RH, 2 weeks) [%] | water contents ([1]; 40° C., 0% RH, 3 weeks) [%] | water contents ([1]; 40° C., 0% RH, 4 weeks) [%] | water contents ([1]; 40° C., 0% RH, 5 weeks) [%] | Stability Evaluation (Stable hydrate) ([1]; 40° C., 0% RH) | water contents ([1]; 40° C., 75% RH, 1 week) [%] | water contents ([1]; 40° C., 75% RH, 2 weeks) [%] | water contents ([1]; 40° C., 75% RH, 3 weeks) [%] | water contents ([1]; 40° C., 75% RH, 4 weeks) [%] | water contents ([1]; 40° C., 75% RH, 5 weeks) [%] | changes of properties, colors or shapes of soft capsules by visual observation [3] | behaviour of water contents on storage ([1]; 24° C. 50% RH) | further results
NCCC(O)(P(=O)([O-])O)P(=O)([O-])O.[Na+].[Na+] [Example 2, crystalline disodium pamidronate 3˜4 hydrates] | 18.19 | 18.03 | 18.04 | 18.31 | 18.28 | maintained stably | maintained stably | 17.12 | 17.20 | 17.37 | 17.10 | 17.22 | 3-4 hydrate | 17.20 | 17.66 | 17.45 | 17.15 | 17.26 | No changes are observed | – | Stability Evaluation (Stable hydrate) ([1]; 24° C., 50% RH): 3-4 hydrate; Stability Evaluation (Stable hydrate) ([1]; 40° C., 75% RH): 3-4 hydrate; overall stability among disodium pamidronate hydrates ([1]; all storage conditions): structurally the most stable; temperature from which water loss begins (TGA) ([2]; 10° C. per minute from room temperature to 500° C.): 50 °C; weight loss (TGA) ([2]; till 221.11° C., 14.26%+3.845%, error of measurement ±3%): 18.105%
NCCC(O)(P(=O)([O-])O)P(=O)([O-])O.[Na+].[Na+] [comparative example, disodium 3-amino-1-hydroxypropane-1,1-diphosphonate] | 19.14 | 18.79 | 18.29 | 18.43 | 18.37 | maintained stably | maintained stably | 24.44 | 24.19 | 23.52 | 23.01 | 22.21 | – | 24.02 | 24.43 | 24.35 | 23.65 | 23.55 | changed in shapes (partly collapse by releasing water), colors and dewy phenomena on inner parts of the capsules | lost from 1 week | Stability Evaluation (Stable hydrate) ([1]; 40° C., 0% RH, listed as 5 hydrate): 5 hydrate; Stability Evaluation (Stable hydrate) ([1]; 40° C., 75% RH, listed as 5 hydrate): 5 hydrate
anhydrous disodium pamidronate | 1.45 | 8.42 | 13.34 | 17.19 | 17.84 | – | – | 0.02 | 0.06 | 0.05 | 0.08 | 0.10 | anhydrous form | 7.14 | 14.39 | 18.20 | 18.24 | 18.22 | – | absorbed water | time after which converted to 3˜4 hydrates ([1]; 24° C. 50% RH): 4 weeks; behaviour of water contents on storage ([1]; 24° C., 0% RH): maintained stably; time after which converted to 3˜4 hydrates ([1]; 40° C. 75% RH): 3 weeks
